# Assay: Effect of buffer concentration on osmolality
# Type: physicochemical
# Experimental: The effect of buffer concentration on osmolality was measured for HEPES and potassium phosphate buffer systems and plotted in FIG. 8A. With HEPES, a higher buffer concentration can be achieved with a lower osmolality (slope 1.37 mOsmol/Kg per mMoles/L HEPES), as compared to phosphate buffers (slope 2.21 mOsmol/Kg per mMoles/L phosphate).
row,Compound,slope of osmolality against buffer concentration [mOsmol/Kg per mMoles/L]
1,"O=S(=O)(O)CCN1CCN(CCO)CC1 [HEPES, 4-(2-hydroxyethyl)-1-piperazineethanesulfonic acid]",1.37
2,phosphate,2.21

# Source: patent US20250281512A1, “BUFFERING AGENT-CONTAINING COMPOSITIONS AND METHODS OF USING SAME” (KNOW BIO, LLC, priority 2022, published 2025)
